# Legend:
# [1] = molecular target: T1, IR (Homo sapiens, UniProt P06213); assay: Premier Screen kinase activity screening (33P ATP filter binding); type: biochemical; details: 10 μM SCO-101, mean of assay duplicates, read-out: Kinase activity (percentage of DMSO control)
# T1 construct: MRC Dundee (screening service)
# In short: (§1)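 Kinase activity was measured by radioactive filter binding with 33P-ATP, testing the compound at a single concentration of 10 μM. Values are the mean percentage activity of duplicate assays, with standard deviation, relative to DMSO controls.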
# [2] = molecular target: T2, PIM2 (Homo sapiens, UniProt Q9P1W9); assay: as above; type: biochemical; details: 10 μM SCO-101, mean of assay duplicates, read-out: Kinase activity (percentage of DMSO control)
# T2 construct: purchased MRC in Dundee (Premier Screen service)
# In short: as §1
# [3] = Cell viability (MTT assay); type: cell-based; details: human, HT29 SN38 resistant colon cancer cells, HT29 SN38 resistant, SCO-101 20 μM alone, read-out: cell viability, % of untreated control cells
# Description: (§2) SN38 was applied to a SN38 sensitive colon cancer cell line (“HT29 parental”) and to a SN38 resistant colon cancer cell line (“HT29 SN38 resistant”).
# (§3) The Log Concentration (μM) used are—1 for SN38. Data represents cell viability data (MTT assay) and cells were incubated with drugs for 72 hours.
# (§4) The Log Concentrations (μM) used are—1 for SN38, and 1.5 for both Srpkin340 and Sphinx 31. Data represents cell viability data (MTT assay) and cells were incubated with drugs for 72 hours.
# [4] = tested on: HT29 SN38 resistant colon cancer cells; assay: Cell viability (MTT assay); type: cell-based; details: 72 hours
# Description: as §2, §3, §4
# T2 sequence (Q9P1W9 whole entry, species assumed): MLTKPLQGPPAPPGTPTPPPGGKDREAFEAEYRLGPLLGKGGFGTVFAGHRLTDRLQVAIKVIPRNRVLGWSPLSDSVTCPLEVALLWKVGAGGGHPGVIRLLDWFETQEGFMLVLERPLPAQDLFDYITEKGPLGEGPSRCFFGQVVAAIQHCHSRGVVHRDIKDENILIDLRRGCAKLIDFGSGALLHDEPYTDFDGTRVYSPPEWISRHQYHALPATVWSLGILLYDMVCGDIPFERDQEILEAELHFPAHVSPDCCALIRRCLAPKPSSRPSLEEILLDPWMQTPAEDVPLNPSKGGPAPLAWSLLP
# T1 sequence (P06213 28-1382): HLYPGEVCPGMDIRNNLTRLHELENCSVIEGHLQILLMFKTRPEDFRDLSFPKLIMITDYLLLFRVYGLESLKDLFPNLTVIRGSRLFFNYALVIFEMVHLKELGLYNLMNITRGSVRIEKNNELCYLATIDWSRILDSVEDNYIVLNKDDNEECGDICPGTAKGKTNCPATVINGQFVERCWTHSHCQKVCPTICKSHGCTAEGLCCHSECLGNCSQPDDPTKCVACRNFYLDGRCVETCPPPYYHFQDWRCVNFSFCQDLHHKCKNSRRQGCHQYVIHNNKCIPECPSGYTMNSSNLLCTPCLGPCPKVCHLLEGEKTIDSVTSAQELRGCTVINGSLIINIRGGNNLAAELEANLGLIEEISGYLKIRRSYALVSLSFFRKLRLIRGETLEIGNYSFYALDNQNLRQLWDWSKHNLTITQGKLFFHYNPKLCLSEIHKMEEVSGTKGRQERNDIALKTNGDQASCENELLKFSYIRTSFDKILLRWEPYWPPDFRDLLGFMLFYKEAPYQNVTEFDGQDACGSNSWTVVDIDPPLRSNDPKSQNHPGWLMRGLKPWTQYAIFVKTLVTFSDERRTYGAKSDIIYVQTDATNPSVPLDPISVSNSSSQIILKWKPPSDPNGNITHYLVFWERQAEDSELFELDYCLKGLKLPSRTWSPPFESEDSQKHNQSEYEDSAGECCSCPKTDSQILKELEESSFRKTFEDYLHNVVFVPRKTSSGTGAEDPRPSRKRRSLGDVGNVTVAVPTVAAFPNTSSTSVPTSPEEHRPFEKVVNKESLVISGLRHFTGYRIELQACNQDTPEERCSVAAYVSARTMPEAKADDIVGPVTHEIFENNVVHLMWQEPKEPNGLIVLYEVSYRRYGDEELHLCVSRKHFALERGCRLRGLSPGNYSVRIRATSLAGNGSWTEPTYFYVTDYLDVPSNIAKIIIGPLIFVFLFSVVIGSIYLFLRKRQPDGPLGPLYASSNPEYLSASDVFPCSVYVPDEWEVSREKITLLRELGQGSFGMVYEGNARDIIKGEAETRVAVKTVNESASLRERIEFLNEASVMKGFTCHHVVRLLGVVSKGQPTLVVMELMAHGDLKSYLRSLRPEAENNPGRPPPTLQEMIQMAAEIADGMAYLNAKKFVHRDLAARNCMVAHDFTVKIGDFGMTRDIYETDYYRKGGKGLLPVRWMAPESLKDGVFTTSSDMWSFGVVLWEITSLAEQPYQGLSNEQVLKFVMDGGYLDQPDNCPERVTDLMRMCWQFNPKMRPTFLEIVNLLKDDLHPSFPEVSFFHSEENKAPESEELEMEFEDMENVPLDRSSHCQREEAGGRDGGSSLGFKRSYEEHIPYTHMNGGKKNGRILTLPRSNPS
smiles,measurement,setting,value
O=C(Nc1cc(C(F)(F)F)cc(C(F)(F)F)c1)Nc1ccc(Br)cc1-c1nnn[nH]1 [SCO-101],remaining activity at 10 µM,[1],98%
same,remaining activity at 10 µM,[2],72%
same,"viability at 72 h, 20 μM",[3],96%
same,viability at 20 µM,"[4]; Homo sapiens, HT-29, HT29 SN38 resistant, combination of SN38 0.1 μM and SCO-101 20 μM, read-out: cell viability, % of untreated control cells",22%
same,re-sensitization of SN38 resistant HT29 cells to SN38,[4]; SCO-101 20 μM with SN38 0.1 μM,re-sensitization
